Experimental data reported in US10265321B2, “Uses of salt-inducible kinase (SIK) inhibitors” (Dana-Farber Cancer Institute, Inc., priority 2014, dated 2019).

Experiments:
[1] = test system: Il10-Thy1.1 reporter in 10BiT BMDCs; test: Il10-Thy1.1 reporter gene detection in 10BiT BMDCs; assay type: cell-based, mouse; conditions: 2 days treatment (0.5 μM), zymosan 18 hr
Description: (§1) Bone marrow-derived DCs were differentiated from C57BL/6 bone marrow in the presence of GM-CSF-conditioned media. CD11c^+ CX3CR1^hi myeloid cells and CD11c^+ CX3CR1^− DCs were isolated from the small intestine lamina propria of Cx3cr1^eGFP/+ mice (12). Detection of cell-surface Thy1.1 expression on BMDCs from 10BiT reporter mice was conducted as described previously (24). Cell viability was estimated by change in total cellular ATP levels using CellTiterGlo assays (Promega). Preparation of recombinant SIK proteins and IC50 measurements were conducted as described previously (21). Total RNA was extracted using a NucleoSpin 96 RNA isolation kit (Macherey-Nagel) followed by cDNA synthesis and multiplex RT-PCR using a microfluidic dynamic array (Fluidigm). The concentrations of TNF-α, IL-6, IL-10, IL-12p40, IL-1β and RANTES in culture supernatants were detected using a FlexSet Cytometric bead array (BD Biosciences). Alternatively, IL-10 secretion was quantified using ELISA (BD Biosciences) or AlphaLISA (PerkinElmer) assays. NO production was estimated based on nitrate content in culture medium using the Greiss reagent.
Preparation of BMDCs from 10BiT reporter mice expressing an il10-Thy1.1 transgene, SIK inhibitor treatment and zymosan stimulation was conducted as described above. […]

BMDCs = test: Multiplex qPCR of transcripts in stimulated BMDCs; assay type: cell-based, mouse; conditions: 2 days pre-treatment, 4 hr LPS, R848 or zymosan
Description: as §1
C57BL/6 mice were euthanized and bone marrow harvested from femurs and tibias as described previously (Graham D B, et al. (2007) An ITAM-signaling pathway controls cross-presentation of particulate but not soluble antigens in dendritic cells. The Journal of experimental medicine 204(12):2889-2897). BMDCs were differentiated DMEM supplemented with 2 mM GlutaMAX, 10% (vol/vol) FBS, penicillin, streptomycin and 2% mouse GM-CSF conditioned media derived from TOPO cells. Cultures were differentiated for 7 days and routinely analyzed for >90% CD11c (APC anti-CD11c clone HL3; BD Biosciences) positivity by flow cytometry before use in experiments. Lentiviral transduction of bone marrow cultures was conducted by addition of 293T culture supernatants containing lentiviral particles encoding the CREB dependent luciferase reporter construct or CRTC3 targeting or control shRNAs one day post-isolation. Stable integration of lentiviral shRNA constructs was selected by addition of puromycin (3 μg/mL) on day 4 post-transduction. After 2 days, stably transduced BMDCs were released from selection and used in subsequent assays. […]
Total RNA was extracted using a NucleoSpin 96 RNA isolation kit (Macherey-Nagel). […] Relative gene expression was calculated from Ct values and normalized against ACTB mRNA levels as described previously (Pfaffl MW (2001) A new mathematical model for relative quantification in real-time RT-PCR. Nucleic acids research 29(9):e45). […]

In the case of `COc1ccc(N(C(=O)Nc2c(C)cccc2C)c2cc(Nc3ccc(N4CCN(C)CC4)cc3)ncn2)c(OC)c1` [HG-9-91-01], the “enhancement of the fraction of BMDCs expressing Il10 following zymosan stimulation” value [1] is reported as “more than 5 fold”, the “IL-10 mRNA levels” value (BMDCs) is reported as “robustly enhanced” and the “abundance of Arg1 and Nos2 transcripts” value (BMDCs) is reported as “significantly blunted”.
